Measurements taken from patent US20220184077A1, “ANTI-VIRAL ACTIVITY OF VPS34 INHIBITORS” (Deciphera Pharmaceuticals, LLC, priority 2020, published 2022).
Like-named read-outs stand apart in the source and are kept apart here.

Key:
[1] = system: coronavirus USA_WA1/2020 SARS CoV-2; experiment: SARS CoV-2 CPE assay for antiviral activity (Vero E6 host cells, Cell Titer-Glo); assay type: cell-based; details: read-out: IC50 for inhibition of SARS CoV-2 mediated cell killing
SARS-CoV-2 = experiment: microbe, parasite or virus in culture; assay type: cell-based; details: Severe acute respiratory syndrome coronavirus 2, A549-ACE2, 48 h; read-out: IC50 for inhibition of SARS CoV-2 mediated cell killing
in vitro [2] = details: human
in vitro [3] = assay type: cell-based; details: African green monkey
Method: Compound cytotoxicity (CC50) is assessed in a BSL-2 counter screen as follows: Host cells in media are added in 25 μl aliquots (4000 cells/well) to each well of assay ready plates prepared with test compounds as above. […] DMSO is maintained at a constant concentration for all wells (0.3%) as dictated by the dilution factor of stock test compound concentrations. After incubating plates at 37° C./5% CO2 and 90% humidity for 72 hours, 30 μl Cell Titer-Glo (Promega) is added to each well. Luminescence is read using a BMG PHERAstar plate reader following incubation at room temperature for 10 minutes to measure cell viability.

[4] = Vero C1008, Vero E6 cells, 72 hours, 10-point dose response, high concentration 15 μM

| Structure (SMILES) | IC50 [1, 4] [µM] | IC50 (SARS-CoV-2) [µM] | CC50 (in vitro [2]) [µM] | CC50 at 72 h (in vitro [3]) [µM] | IC50 ([1]; Vero C1008, 72 h) [µM] |
| --- | --- | --- | --- | --- | --- |
| Cc1nccc(Nc2cc(-c3cc(-c4cccnc4C(F)(F)F)[nH]c(=O)c3)ccn2)n1 [Compound 1] | 0.12 | 0.059 | 2 | > 30 | – |
| Cc1nccc(Nc2cc(-c3cc(-c4ccccc4Cl)[nH]c(=O)c3)ccn2)n1 [Compound 2] | < 0.02 | < 0.02 | 0.159 | 0.482 | – |
| Cc1nccc(Nc2cc(-c3cc(-c4ccccc4C(F)(F)F)n(C)c(=O)c3)ccn2)n1 [Compound 3] | – | < 0.02 | 1370 | 1960 | 0.036 |
| CCS(=O)(=O)N1CCN(c2cc(-c3ccnc(Nc4ccnc(C)n4)c3)cc(=O)[nH]2)C(C(F)(F)F)C1 (stereo not shown) [Compound 4] | – | 0.035 | 0.557 | 2760 | 0.109 |
